Tests used:
Cynomolgus monkey plasma = assay: Species difference test: aPTT prolongation in plasma; assay type: biochemical
Experimental: (§1) The compound of Reference Example 2-6 dissolved in DMSO was added at final concentrations of 0.03 to 200 μmol/L to the plasma of each animal species prepared using 3.2% sodium citrate. The solution was incubated at 37° C. for 6 minutes. Then, an STA reagent Cephascreen (for aPTT assay; manufactured by Roche Diagnostics K.K.) was added thereto in an amount equal to the total amount of the plasma and the DMSO solution, and the mixture was further incubated for 4 minutes. Then, STA calcium chloride (manufactured by Roche Diagnostics K.K.) was added thereto in an amount equal to the total amount of the plasma and the DMSO solution, and the time required for coagulation was measured. The concentration at which the coagulation time was prolonged two times (EC2x) was calculated for each plasma.

Dog plasma = assay: as above; assay type: biochemical
Experimental: as §1

Mouse plasma = assay: as above; assay type: biochemical
Experimental: as §1

Rabbit plasma = assay: as above; assay type: biochemical
Experimental: as §1

Rat plasma = assay: as above; assay type: biochemical
Experimental: as §1

human plasma = assay: as above; assay type: biochemical
Experimental: as §1

Human FXIIa = target: T1, Human FXIIa (Homo sapiens, UniProt P00748); assay: Enzyme selectivity evaluation test: FXIIa; assay type: biochemical
T1 construct: 5) Factor XIIa (FXIIa); purchased Enzyme Research Laboratories
T1 sequence (P00748 373-615 limits assumed): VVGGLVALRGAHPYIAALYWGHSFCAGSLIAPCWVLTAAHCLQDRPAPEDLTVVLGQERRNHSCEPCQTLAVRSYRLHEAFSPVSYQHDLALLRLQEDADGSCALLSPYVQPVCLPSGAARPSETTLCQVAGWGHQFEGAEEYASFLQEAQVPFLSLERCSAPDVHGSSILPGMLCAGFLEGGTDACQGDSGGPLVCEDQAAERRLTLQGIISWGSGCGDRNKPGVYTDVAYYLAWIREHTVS
T1 sequence (P00748 20-372 partner limits assumed): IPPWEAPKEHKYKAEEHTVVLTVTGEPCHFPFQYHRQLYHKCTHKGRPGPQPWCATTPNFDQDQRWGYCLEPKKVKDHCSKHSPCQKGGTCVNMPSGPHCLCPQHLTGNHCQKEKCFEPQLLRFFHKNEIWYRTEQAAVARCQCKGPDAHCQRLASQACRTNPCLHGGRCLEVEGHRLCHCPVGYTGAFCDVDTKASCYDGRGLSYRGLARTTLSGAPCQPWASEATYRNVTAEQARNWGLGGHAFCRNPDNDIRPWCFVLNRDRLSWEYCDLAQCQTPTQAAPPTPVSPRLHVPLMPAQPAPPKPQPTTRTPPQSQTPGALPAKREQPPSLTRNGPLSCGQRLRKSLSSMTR
Experimental: S-2288 (H-D-Ile-Pro-Arg-pNA.2HCl) was added as the substrate at a final concentration of 300 μmol/L. After progression of the reaction, the absorbance was measured at OD 405 nm.

[1] = tested on: Rabbit venous thrombus models; assay: In vivo antithrombotic effect evaluation test using rabbit (arteriovenous shunt); details: prompt i.v. + continuous i.v.
Experimental: Rabbit venous thrombus models were prepared by a modification of the report of Wong et al. (Wong P C. et al., J. Pharmacol. Exp. Ther. 292: 351-357 (2000)). Male rabbits (JW, 2 to 4 kg) were anesthetized by the inhalation of isoflurane (ISOFLU®, manufactured by DS Pharma Animal Health Co., Ltd.) (introduced anesthesia: 4%, continuous anesthesia: 1.5 to 2.5%). A tracheostomy tube was inserted to each rabbit, which was then ventilated using a respirator. For the intravenous administration of a test drug and blood collection, catheters were inserted to the right femoral vein and the right femoral artery, respectively. An arteriovenous shunt filled with saline was inserted to the carotid artery and the jugular vein. The arteriovenous shunt was prepared by connecting Atom extension tubes (4Fr) having lengths of 15 cm and 13 cm to the artery side and the vein side, respectively, of a polyethylene tube (length: 60 cm, outside diameter: 11.1 mm, inside diameter: 7.9 mm). Also, 4-0 silk thread having a length of 5 cm was indwelled in the arteriovenous shunt. Blood was sent for 30 minutes from the carotid artery to the jugular vein via the arteriovenous shunt. The shunt was removed, and the weight of the silk thread covered with thrombus was measured. The weight of the silk thread measured before the experiment was subtracted from the measured weight, and the obtained value was used as a wet thrombus weight. One hour before the open of the arteriovenous shunt, the test drug or a vehicle was promptly intravenously administered (0.67 mL/kg) and then continuously intravenously administered (1 mL/kg/hr). The continuous injection was continued throughout the experiment. Further, an existing anticoagulant dabigatran (antithrombin drug) and rivaroxaban (FXa inhibitor) were tested as control drugs.
In order to measure aPTT of blood samples as an index for the intrinsic coagulation pathway, blood was collected before administration and immediately before cessation of blood flow, and plasma was prepared using 3.2% sodium citrate. After incubation at 37° C. for 6 minutes, an STA reagent Cephascreen (for aPTT assay; manufactured by Roche Diagnostics K.K.) was added in an amount equal thereto, and the mixture was further incubated for 4 minutes. STA calcium chloride (manufactured by Roche Diagnostics K.K.) was added in an amount equal thereto, and the time required for coagulation was measured.
In order to measure prothrombin time (PT) of blood samples as an index for the extrinsic coagulation pathway, blood was collected before administration and immediately before cessation of blood flow, and plasma was prepared using 3.2% sodium citrate. After incubation at 37° C. for 10 minutes, Neoplastin Plus (for PT assay; manufactured by Roche Diagnostics K.K.) was added in a double amount, and the time required for coagulation was measured.

[2] = Dog PK test (Test Example 9); assay type: in vivo; details: plasma, 1 mg/kg, male beagle, intravenous, 1 mg/2 mL/kg, read-out: AUC from 0 hours to 24 hours (compound of Reference Example 2-6 in plasma)
Experimental: The compound of Reference Example 2-6 was dissolved in a mixed solution of saline/0.1 N HCl=9/1, and this solution was intravenously administered at a dose of 1 mg/2 mL/kg to a male beagle. Blood collection was carried out 0.25, 0.5, 1, 2, 4, 6, and 24 hours after administration. 2 mL of blood was collected using a syringe packed with 20 μL of Novo-Heparin Injection, transferred to a centrifugal tube cooled in ice, and centrifuged at 3000 rpm at 4° C. for 10 minutes to prepare plasma. 200 μL of the prepared plasma was added to a tube containing 600 μL of acetonitrile and mixed for approximately 10 seconds using a vortex mixer. Then, the concentration of the compound of Reference Example 2-6 was measured.
The compound of Example 7 was suspended in a 0.5% aqueous methylcellulose solution, and this suspension was orally administered at a dose of 5 mg/5 mL/kg to a male beagle fasted for 16 hours. Blood collection was carried out 0.5, 1, 2, 4, 6, and 24 hours after administration. 2 mL of blood was collected using a syringe packed with 20 μL of Novo-Heparin Injection, transferred to a centrifugal tube cooled in ice, and centrifuged at 3000 rpm at 4° C. for 10 minutes to prepare plasma. […] Then, the concentration of the compound of Reference Example 2-6 was measured.

[3] = dose 0.15 + 0.225 mg/kg + mg/kg/h
[4] = dose 0.5 + 0.75 mg/kg + mg/kg/h
[5] = dose 1.5 + 2.25 mg/kg + mg/kg/h

For `Cl.N[C@H](CF)[C@H]1CC[C@H](C(=O)N2CC[C@@H](C3CCCCC3)[C@H]2C(=O)Nc2ccc3[nH]c(C(=O)O)cc3c2)CC1` [Reference Example 2-6, 5-{[(3S)-1-({trans-4-[(1S)-1-Amino-2-fluoroethyl]cyclohexyl}carbonyl)-3-cyclohexyl-L-prolyl]amino}-1H-indole-2-carboxylic acid hydrochloride], the “EC2x (concentration at which the coagulation time was prolonged two times)” value (“EC2x” for short) (Cynomolgus monkey plasma) was 2.6 µM, the “EC2x” value (Dog plasma) was 34.4 µM and the “EC2x” value (Mouse plasma) was >200 µM. For the same molecule, the “EC2x” value (Rabbit plasma) was 34.2 µM, the “EC2x” value (Rat plasma) was >200 µM and the “EC2x” value (human plasma) was 0.6 µM. The IC50 (Human FXIIa) was > 10 µM, the “PT (ratio)” value [1, 3] was 1.01 ± 0.02 ratio and the Thrombus weight [1, 3] was 81 ± 12 mg. The “aPTT (ratio)” value [1, 3] was 1.24 ± 0.08 ratio, the “PT (ratio)” value [1, 4] was 1.00 ± 0.02 ratio and the Thrombus weight [1, 4] was 66 ± 22 mg. The “aPTT (ratio)” value [1, 4] was 1.59 ± 0.15 ratio, the “PT (ratio)” value [1, 5] was 1.01 ± 0.00 ratio and the Thrombus weight [1, 5] was 36 ± 6 mg. The “aPTT (ratio)” value [1, 5] was 1.84 ± 0.10 ratio, the “PT (ratio)” value ([1]; dose 5.0 + 7.5 mg/kg + mg/kg/h) was 1.02 ± 0.02 ratio and the Thrombus weight ([1]; dose 5.0 + 7.5 mg/kg + mg/kg/h) was 16 ± 6 mg. For the same molecule, the “aPTT (ratio)” value ([1]; dose 5.0 + 7.5 mg/kg + mg/kg/h) was 2.35 ± 0.09 ratio and the AUC [2] was 4420 ng·h/mL.

From patent US9718840B2, “Condensed 5-oxazolidinone derivative” (SUMITOMO DAINIPPON PHARMA CO., LTD., priority 2014, dated 2017)
